Test [1] concerns the target T1, CDK4 protein kinase (GST-CDK4(1-303 end)) (Homo sapiens, UniProt P11802).
T1 construct: GST-CDK4(1-303 end); GST (N)
As to the kind of experiment: CDK4 protein kinase activity, Caliper mobility shift assay. It is filed as biochemical. The conditions noted are these: substrate Peptide FAM-P8, 28° C. for 3 h. How it is done:
(§1) Activity Assay: The CDK4 protein kinase activity was measured using the Caliper mobility shift assay (see J. Biomol. Screen, 2009, PP31). The test compound was dissolved in DMSO and diluted with a kinase buffer solution (20 mM HEPES-pH 7.5, 0.01% Triton X-100, 10 mM MgCl2, 2 mM DTT) and 5 μL of the compound at 5-fold final concentration of reaction dissolved in 10% DMSO was added in a 384-well plate. The compound-free control well was 5 μL of 10% DMSO, and the no-activity control well was 5 μL of kinase buffer. 10 μL of a 2.5-fold diluted CDK4 enzyme solution (GST-CDK4(1-303 end)) was added and incubated at room temperature for 10 min, and then 10 μL of the 2.5-fold diluted substrate solution Peptide FAM-P8 was added. The reaction was stopped by adding 25 μL of stop solution after incubation at 28° C. for 3 h, and the conversion rate data was read on a Caliper EZ Reader II (Caliper Life Sciences) and the conversion rate was converted to inhibition rate data according to above method. Among them, the inhibition rate %=(max−conversion)/(max−min)×100%.

For test [2], the target named is T2, CDK6 protein kinase (GST-CDK6(1-326 end)) (Homo sapiens, UniProt Q00534).
T2 construct: GST-CDK6(1-326 end); GST (N)
As to the kind of experiment: CDK6 protein kinase activity, Caliper mobility shift assay. It is filed as biochemical. The conditions noted are these: substrate Peptide FAM-P8, 28° C. for 3 h. Here is the method:
as §1, with “CDK6” for “CDK4”, “(GST-CDK6(1-326” for “(GST-CDK4(1-303”

T2 sequence (Q00534 whole entry): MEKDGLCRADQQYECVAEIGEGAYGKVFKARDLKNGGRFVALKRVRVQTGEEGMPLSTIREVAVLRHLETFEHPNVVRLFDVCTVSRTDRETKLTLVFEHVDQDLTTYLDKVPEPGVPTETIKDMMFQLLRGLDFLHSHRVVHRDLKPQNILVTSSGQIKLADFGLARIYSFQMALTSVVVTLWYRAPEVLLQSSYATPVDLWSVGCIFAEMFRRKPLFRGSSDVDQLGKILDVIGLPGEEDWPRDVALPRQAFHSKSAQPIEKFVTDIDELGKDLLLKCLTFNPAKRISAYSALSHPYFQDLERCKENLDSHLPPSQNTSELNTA
T2 sequence (P30281 whole entry partner): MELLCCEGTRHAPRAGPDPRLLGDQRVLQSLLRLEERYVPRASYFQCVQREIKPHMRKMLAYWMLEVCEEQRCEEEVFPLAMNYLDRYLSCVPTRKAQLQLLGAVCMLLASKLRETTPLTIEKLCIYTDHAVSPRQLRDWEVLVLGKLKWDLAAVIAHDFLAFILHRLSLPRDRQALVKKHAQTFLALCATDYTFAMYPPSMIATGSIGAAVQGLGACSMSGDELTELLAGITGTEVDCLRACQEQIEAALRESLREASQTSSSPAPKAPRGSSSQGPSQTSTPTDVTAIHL
T1 sequence (P11802 whole entry): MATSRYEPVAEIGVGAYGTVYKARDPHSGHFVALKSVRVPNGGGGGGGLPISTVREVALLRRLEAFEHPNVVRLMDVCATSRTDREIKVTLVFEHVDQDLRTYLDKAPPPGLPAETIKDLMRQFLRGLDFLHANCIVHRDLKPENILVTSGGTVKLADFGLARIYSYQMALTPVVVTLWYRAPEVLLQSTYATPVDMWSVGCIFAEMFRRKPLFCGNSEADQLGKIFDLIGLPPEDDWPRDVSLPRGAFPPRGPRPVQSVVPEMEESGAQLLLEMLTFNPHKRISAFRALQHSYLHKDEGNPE
T1 sequence (P30281 whole entry partner): as the sequence (P30281 whole entry partner) above

With `CCN1CCN(Cc2ccc(Nc3ncc4c(n3)N(C3CCCC3)C(=O)C(C#N)O4)nc2)CC1` (stereo not shown) [Compound I-27, 6-cyano-8-cyclopentyl-2-(5-(4-ethyl-1-piperazinyl)methyl-pyridin-2-amino)-6H-pyrimido[5,4-b][1,4]oxazin-7(8H)-one], the IC50 in test [1] and in test [2] was not above 20 nM each time.

For the compound `CCN1CCN(Cc2ccc(Nc3ncc4c(n3)N(C3CCCC3)C(=O)C3(CCC3)O4)nc2)CC1` [Compound I-28], the results for the IC50 in test [1] and in test [2] were not above 20 nM and 20 to 100 nM, respectively.

For the compound `CC1(C)Oc2cnc(Nc3ccc(N4CCNCC4)cn3)nc2N(c2ccc(Cl)cc2)C1=O` [Compound I-36, 6,6-dimethyl-8-(4-chlorophenyl)-2-(5-(1-piperazinyl)-pyridin-2-amino)-6H-pyrimido[5,4-b][1,4]oxazin-7(8H)-one], the IC50 in test [1] and in test [2] was not above 20 nM each time.

As for `CCN1CCN(Cc2ccc(Nc3ncc4c(n3)N(c3ccccn3)C(=O)C(C)(C)O4)nc2)CC1` [Compound I-30, 6,6-dimethyl-8-(2-pyridyl)-2-(5-(4-ethyl-1-piperazinyl)methyl-pyridine-2-amino)-6H-pyrimido[5,4-b][1,4]oxazin-7(8H)-one], the results for the IC50 in test [1] and in test [2] were not above 20 nM and 20 to 100 nM, respectively.

`NC(=O)C1Oc2cnc(Nc3ccc(N4CCNCC4)cn3)nc2N(C2CCCC2)C1=O` (stereo not shown) [Compound I-34, 6-carboxamide-8-cyclopentyl-2-(5-(1-piperazinyl)-pyridin-2-amino)-6H-pyrimido[5,4-b][1,4]oxazin-7(8H)-one]: the IC50 in test [1] and in test [2] was not above 20 nM throughout.

For the compound `N#CC1Oc2cnc(Nc3ccc(N4CCNCC4)cn3)nc2N(C2CCCC2)C1=O` (stereo not shown) [Compound I-10, 6-cyano-8-cyclopentyl-2-(5-(1-piperazinyl)-pyridin-2-amino)-6H-pyrimido[5,4-b][1,4]oxazin-7(8H)-one], the results for the IC50 in test [1] and in test [2] were not above 20 nM and 100 to 500 nM, respectively.

As to `O=C1C(C2CC2)Oc2cnc(Nc3ccc(N4CCNCC4)cn3)nc2N1C1CCCC1` (stereo not shown) [Compound I-13, 6-cyclopropyl-8-cyclopentyl-2-(5-(1-piperazinyl)-pyridin-2-amino)-6H-pyrimido[5,4-b][1,4]oxazin-7(8H)-one], the IC50 in test [1] and in test [2] was not above 20 nM in each case.

`CC(=O)C1Oc2cnc(Nc3ccc(N4CCNCC4)cn3)nc2N(C2CCCC2)C1=O` (stereo not shown) [Compound I-9, 6-acetyl-8-cyclopentyl-2-(5-(1-piperazinyl)-pyridin-2-amino)-6H-pyrimido[5,4-b][1,4]oxazin-7(8H)-one]: the figures for the IC50 in test [1] and in test [2] were not above 20 nM and 20 to 100 nM, respectively.

For `CN(C)C(=O)C1Oc2cnc(Nc3ccc(N4CCNCC4)cn3)nc2N(C2CCCC2)C1=O` (stereo not shown) [Compound I-33, N,N-dimethyl-6-carboxamide-8-cyclopentyl-2-(5-(1-piperazinyl)-pyridin-2-amino)-6H-pyrimido[5,4-b][1,4]oxazin-7(8H)-one], the IC50 in test [1] and in test [2] was not above 20 nM throughout.

`O=C1N(C2CCCC2)c2nc(Nc3ccc(N4CCNCC4)cn3)ncc2OC12CCCCCC2` [Compound I-8, 8′-cyclopentyl-2′-(5-(1-piperazinyl)-pyridin-2-amino)spiro[cyclohepta-1,6′-pyrimido[5,4-b][1,4]oxazin]-7′(8′H)-one]: the IC50 in test [1] was not above 20 nM; in test [2], 20 to 100 nM.

For `CC1(C)Oc2cnc(Nc3ccc(N4CCNCC4)cn3)nc2N(C2CCCC2)C1=O` [Compound I-2, 6,6-Dimethyl-8-cyclopentyl-2-(5-(1-piperazinyl)-pyridin-2-amino)-6H-pyrimido[5,4-b][1,4]oxazin-7(8H)-one], the IC50 in test [1] and in test [2] was not above 20 nM in each case.

Regarding `CCN1CCN(Cc2ccc(Nc3ncc4c(n3)N(c3ncccn3)C(=O)C(C)(C)O4)nc2)CC1` [Compound I-31, 6,6-dimethyl-8-(2-pyrimidinyl)-2-(5-(4-ethyl-1-piperazinyl)methyl-pyridine-2-amino)-6H-pyrimido[5,4-b][1,4]oxazin-7(8H)-one], the IC50 in test [1] and in test [2] was not above 20 nM each time.

Turning to `O=C1N(C2CCCC2)c2nc(Nc3ccc(N4CCNCC4)cn3)ncc2OC12CCCCC2` [Compound I-7, 8′-cyclopentyl-2′-(5-(1-piperazinyl)-pyridin-2-amino)spiro[cyclohex-1,6′-pyrimido[5,4-b][1,4]oxazin]-7′(8′H)-one], the IC50 in test [1] and in test [2] was not above 20 nM in each case.

`CCN1CCN(Cc2ccc(Nc3ncc4c(n3)N(C3CCCC3)C(=O)C(C(C)=O)O4)nc2)CC1` (stereo not shown) [Compound I-26, 6-acetyl-8-cyclopentyl-2-(5-(4-ethyl-1-piperazinyl)methyl-pyridin-2-amino)-6H-pyrimido[5,4-b][1,4]oxazin-7(8H)-one]: the IC50 was not above 20 nM in test [1] and 100 to 500 nM in test [2].

These data come from patent US10351578B2, “Heterocyclic-substituted pyridinopyrimidinone derivative as CDK inhibitor and use thereof” (Shanghai Xunhe Pharmaceutical Technology Co. Ltd., priority 2016, dated 2019).
